Biological target: human Gal-3 (hGal-3) (Homo sapiens (Human), UniProt P17931)
Test: competitive binding assay: binding of biotinylated hGal-3 to microplate-adsorbed asialofetuin (ASF), spectrophotometric
Conditions: Activity on hGal-3; mean values of several measurements
Summary of the method: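 Biotinylated hGal-3 (300-1000 ng/mL) bound to ASF-coated wells with serially diluted compound, 3 h at 4° C. After washing, bound protein was detected with streptavidin-peroxidase (80 ng/mL, 1 h, 4° C) and ABTS substrate; IC50 values are means of several measurements.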

Sequence of human Gal-3 (hGal-3) (P17931 whole entry): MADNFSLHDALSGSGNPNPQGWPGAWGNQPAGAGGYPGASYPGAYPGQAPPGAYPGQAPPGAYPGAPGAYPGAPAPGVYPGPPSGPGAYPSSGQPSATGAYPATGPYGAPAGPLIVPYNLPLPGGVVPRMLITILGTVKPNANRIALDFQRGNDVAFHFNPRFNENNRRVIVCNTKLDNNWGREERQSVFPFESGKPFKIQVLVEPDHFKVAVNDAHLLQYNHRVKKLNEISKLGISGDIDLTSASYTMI

| SMILES | IC50 [µM] |
| --- | --- |
| COc1cc(-c2cn([C@H]3[C@@H](O)[C@@H](CO)O[C@@H](C(=O)N(c4cc(C)cc(Br)c4)[C@@H]4CC[C@H]4O)[C@@H]3OC)nn2)cc(F)c1F [Example 2.3.12R, (2R,3R,4S,5R,6R)-N-(3-bromo-5-methylphenyl)-4-(4-(3,4-difluoro-5-methoxyphenyl)-1H-1,2,3-triazol-1-yl)-5-hydroxy-N-((1R,2R)-2-hydroxycyclobutyl)-6-(hydroxymethyl)-3-methoxytetrahydro-2H-pyran-2-carboxamide] | 0.311 |
| CO[C@@H]1[C@@H](n2cc(-c3ccc(Cl)c(Cl)c3)nn2)[C@@H](O)[C@@H](CO)O[C@H]1C(=O)N(c1cc(Br)cc(C#N)c1)[C@H]1CCC[C@@H]1O [Example 1.8.5, (2R,3R,4S,5R,6R)-N-(3-bromo-5-cyanophenyl)-4-(4-(3,4-dichlorophenyl)-1H-1,2,3-triazol-1-yl)-5-hydroxy-N-((1S,2S)-2-hydroxycyclopentyl)-6-(hydroxymethyl)-3-methoxytetrahydro-2H-pyran-2-carboxamide] | 0.0408 |
| CO[C@@H]1[C@@H](n2cc(-c3cc(F)c(F)c(Cl)c3)nn2)[C@@H](O)[C@@H](CO)O[C@H]1C(=O)N(c1cc(Br)cc(C#N)c1)[C@H]1CCC[C@@H]1O [Example 1.7.5, (2R,3R,4S,5R,6R)-N-(3-bromo-5-cyanophenyl)-4-(4-(3-chloro-4,5-difluorophenyl)-1H-1,2,3-triazol-1-yl)-5-hydroxy-N-((1S,2S)-2-hydroxycyclopentyl)-6-(hydroxymethyl)-3-methoxytetrahydro-2H-pyran-2-carboxamide] | 0.0212 |
| COc1cc(-c2cn([C@H]3[C@@H](O)[C@@H](CO)O[C@@H](C(=O)N(c4cc(Br)cc(Br)c4)[C@@H]4CCC[C@H]4O)[C@@H]3OC)nn2)cc(F)c1F [Example 1.3.11R, (2R,3R,4S,5R,6R)—N-(3,5-dibromophenyl)-4-(4-(3,4-difluoro-5-methoxyphenyl)-1H-1,2,3-triazol-1-yl)-5-hydroxy-N-((1R,2R)-2-hydroxycyclopentyl)-6-(hydroxymethyl)-3-methoxytetrahydro-2H-pyran-2-carboxamide] | 0.277 |
| CO[C@@H]1[C@@H](n2cc(-c3ccc(Br)c(F)c3F)nn2)[C@@H](O)[C@@H](CO)O[C@H]1C(=O)N(c1cc(F)cc(C#N)c1)[C@@H]1CCC[C@H]1O [Example 1.12.7R, (2R,3R,4S,5R,6R)-4-(4-(4-bromo-2,3-difluorophenyl)-1H-1,2,3-triazol-1-yl)-N-(3-cyano-5-fluorophenyl)-5-hydroxy-N-((1R,2R)-2-hydroxycyclopentyl)-6-(hydroxymethyl)-3-methoxytetrahydro-2H-pyran-2-carboxamide] | 0.0946 |
| CO[C@@H]1[C@@H](n2cc(-c3cc(F)c(Br)c(F)c3)nn2)[C@@H](O)[C@@H](CO)O[C@H]1C(=O)N(c1cc(Cl)cc(C#N)c1)[C@H]1CC[C@@H]1O [Example 2.6.4, (2R,3R,4S,5R,6R)-4-(4-(4-bromo-3,5-difluorophenyl)-1H-1,2,3-triazol-1-yl)-N-(3-chloro-5-cyanophenyl)-5-hydroxy-N-((1S,2S)-2-hydroxycyclobutyl)-6-(hydroxymethyl)-3-methoxytetrahydro-2H-pyran-2-carboxamide] | 0.08 |
| CO[C@@H]1[C@@H](n2cc(-c3cc(F)c(Cl)c(F)c3)nn2)[C@@H](O)[C@@H](CO)O[C@H]1C(=O)N(c1cc(Cl)cc(C#N)c1)[C@H]1CC[C@@H]1O [Example 2.5.4, (2R,3R,4S,5R,6R)-4-(4-(4-chloro-3,5-difluorophenyl)-1H-1,2,3-triazol-1-yl)-N-(3-chloro-5-cyanophenyl)-5-hydroxy-N-((1S,2S)-2-hydroxycyclobutyl)-6-(hydroxymethyl)-3-methoxytetrahydro-2H-pyran-2-carboxamide] | 0.0714 |

Source: patent US20230348442A1, “GALECTIN-3 INHIBITING 2-HYDROXYCYCLOALKANE-1-CARBAMOYL DERIVATIVES” (Idorsia Pharmaceuticals Ltd, priority 2020, published 2023)
